We go through 6 molecules from patent US11759496B2, “Compounds and pharmaceutical use thereof in the treatment of cancer” (priority 2016, dated 2023).

Entries after “also recorded” stand apart in the source; their conditions may differ. Non-standard residues stand in square brackets, D forms with d. Residues, ends and D or L forms follow the SMILES beside them. *: point of attachment. NMeR = CN[C@@H](CCCNC(=N)N)C(=O)O; X1 = N=C(N)NCCC[C@H](CN)C(=O)*; β3hK = NCCCC[C@H](N)CC(=O)O; Nle = CCCC[C@H](N)C(=O)O

Series [1] can be described thus: Solubility of the peptides in water / aqueous buffer (NMR, CD samples). The class given is physicochemical. Conditions: for solubility of peptide (in words): aqueous buffer, NMR / CD samples. On the procedure:
CD spectra were recorded on a Jasco 815 spectropolarimeter (Jasco Inc., Easton, Md.) over the wavelength range 190-260 nm, at 0.2 nm intervals and 10 nm·min^−1 scan speed. Peptides were dissolved at 50 μM concentration in a 10 mM sodium phosphate buffer at pH 7.4, using 0.1 cm path length quartz cells (Hellma, Mullheim, Germany). CD spectra were deconvoluted with CDFriend program in order to estimate the peptide secondary structure content.
NMR experiments were recorded on a 500 MHz Bruker Avance III spectrometer (Wissembourg, France) equipped with a TCI cryoprobe. NMR samples were prepared in 50 mM sodium succinate buffer, pH 5, using 2 mM peptide concentration. Sodium 2,2-dimethyl-2-silapentane-d6-5-sulfonate (Sigma Aldrich) was added at 0.1 mM concentration for chemical shift calibration and measurement of the solubilized peptide concentration. NMR experiments were processed with TOPSPIN 2.1 software (Bruker) and spectra were analyzed with Sparky program. ^1H, ^13C and ^15N resonances were assigned using 2D ^1H-^1H TOCSY (DIPSI2 isotropic scheme of 70 ms duration), 2D ^1H-^1H ROESY (300 ms mixing time), 2D ^1H-^13C HSQC, 2D ^1H-^15N HSQC, and 2D ^1H-^13C HMBC spectra. The complete ^1H, ^13C and ^15N NMR assignments of peptides 4N1K, PKT2, PKHB1 and 4NGG are provided in Tables S1-S4 (supporting information). […] The chemical shift deviations of Ha protons and Cα carbons were calculated as the differences between observed chemical shifts and random coil values reported in water. The conformational analysis of thrombospondin-1 was carried out on the crystal structure of a C-terminal fragment of human thrombospondin-1 using Pymol (Schrödinger) and Procheck programs. Predictions of NMR chemical shifts on the X-ray structure were carried out using SHIFTX2 program.

The subject of series [2] is MEC-1 cells. As to the kind of experiment: MEC-1 cell death (PCD) after 2 h peptide treatment. The class given is cell-based. Conditions: for MEC-1 Cell Death (%) 2 h: Table 2, NPD = Non Pertinent Data. On the procedure:
Then the peptides structures were tested via NMR and X-ray. The peptides were also tested for their activity on MEC-1 and their KDs and Retention times on LCMS were determined.

Series [3] addresses T1, CD47 (membrane preparation from MEC-1 cells) (Homo sapiens, UniProt Q08722).
T1 construct: MEC-1 cell membrane preparation were biotinylated with the EZ-Link NHS-PEG4-Biotin kit; endogenous in cells; host or cells: MEC-1 cells (membrane preparation)
As to the kind of experiment: Binding affinity by biolayer interferometry (Octet RED96) on biotinylated MEC-1 cell membrane preparation. Conditions: for Kd (μM) (OR): Table 2, average of at least three independent experiments, NPD = Non Pertinent Data. On the procedure:
The binding affinities of peptides for a membrane preparation from MEC-1 cells were measured by biolayer interferometry on an Octet RED96 System (Pall FortéBio Corp., Menlo Park, Calif.).
The binding affinities of peptides for a membrane preparation from MEC-1 cells were measured by biolayer interferometry on an Octet RED96 System (Pall FortéBio Corp., Menlo Park, Calif.). This system monitors interference of light reflected from two sources (an internal reflection surface and the liquid/solid interface of a fiber optic sensor) to measure the rate of binding of molecules to the biosensor surface.
MEC-1 cell membrane preparation were biotinylated with the EZ-Link NHS-PEG4-Biotin kit from Thermo-Scientific. Biotinylated membranes were then loaded onto SuperStreptavidin (SSA) biosensors (Pall FortéBio Corp.) at empirically determined concentrations.
In order to highlight the pharmacological properties of these peptides, a systematic SAR study by the development of a binding assay allowing to the assessment of the affinity of the 4N1K analogues to CD47 was initiated. […] An Ala-scan to identify the pharmacophores of 4N1K was implemented.
The binding affinities of peptides for a MEC-1 cells membrane preparation were measured by biolayer interferometry on an Octet RED96 System (Pall FortéBio Corp., Menlo Park, Calif.). This system monitors interference of light reflected from two sources (an internal reflection surface and the liquid/solid interface of a fiber optic sensor) to measure the rate of binding of molecules to the biosensor surface. MEC-1 cells membrane preparation is biotinylated with the EZ-Link NHS-PEG4-Biotin kit from Thermo-Scientific and excess biotin is removed using desalting column from Thermo-Scientific. Biotinylated membranes are then loaded onto SuperStreptavidin (SSA) biosensors (Pall FortéBio Corp.) at empirically determined concentrations. […] Typically, the biosensors were pre-equilibrated in PBS containing either biotinylated membranes or biocytine 100 μg/mL. Biosensors are then equilibrated in assay buffer for 10 min, brought to baseline in assay buffer for 60 sec. and transferred to wells containing peptide in dose-response (association for 120 sec. and dissociation for 300 sec.). The double reference with either membrane-loaded biosensors without any peptide dose-response or biocytine-loaded biosensors with each peptide dose-response were run in parallel for background signal double subtractions. Binding kinetics were calculated using the FortéBio Data Analysis v8.2 software.

In series [4] the target is T2, CD47 (NT.115-labeled membrane) (Homo sapiens, UniProt Q08722).
T2 construct: the concentration of the NT.115-labeled membrane was kept constant; endogenous in cells
Description: Binding affinity by microscale thermophoresis (MST), NT.115-labeled membrane. Conditions: Table 2; average of at least three independent experiments; NPD = Non Pertinent Data. On the procedure: For all experiments the concentration of the NT.115-labeled membrane was kept constant, while the concentrations of the ligand (peptide) was varied. After a short incubation time (5 min) the samples were loaded into MST premium glass capillaries and the MST analysis was performed using the Monolith NT.115.

For series [5], the system named is CLL cells. As to the kind of experiment: Cell death (Annexin-V and PI co-positivity) in CLL cells (FIG. 2). The class given is cell-based. Conditions: 6 h. On the procedure: FIG. 2A: cell death, measured as Annexin-V and PI co-positivity, was assessed leukemic cells treated 6 h with different concentrations of PKT16 or PKHB1. The data in the plot are the mean±s.d. (n=5). FIG. 2B: cell death induced by PKT16 (100 μM, 6 h) was measured in B-cells from twenty healthy donors and forty CLL patients. The percentages refer to the mean of the Annexin-V/PI-positive staining

The test system of series [6] is OSU cells. Description: Deaths on OSU cells treated with PKT16 or PKT16-FF (FIG. 4). The class given is cell-based. Conditions: 6 hours, control 9.5%. On the procedure: FIG. 4: compares deaths on OSU cells treated with PKT16 or PKT16-FF. For PKT16, it can be seen that the reported deaths are of 11.1, 17.9 and 52.7% for concentrations of 25 μM, 50 μM and 100 μM respectively. For PKT16-FF, it can be seen that the reported deaths are of 16.6, 38.3 and 82.4% for concentrations of 25 μM, 50 μM and 100 μM respectively. The control test provided 9.5% death of the cells.
It was synthesized using common solide phase peptide synthesis technics as mentioned above.

In series [7] the test system is B CLL cells that have the C481S mutation BTK gene. As to the kind of experiment: Sensitivity of ibrutinib-resistant B CLL cells to PKT16. The class given is cell-based. Particulars: resistance to Ibrutinib.
Series [8] relates to B-chronic lymphocytic leukemia (CLL) primary cells. Particulars: soluble peptide; WO 2013/182650; cited from earlier work.

T1 sequence (Q08722 19-323): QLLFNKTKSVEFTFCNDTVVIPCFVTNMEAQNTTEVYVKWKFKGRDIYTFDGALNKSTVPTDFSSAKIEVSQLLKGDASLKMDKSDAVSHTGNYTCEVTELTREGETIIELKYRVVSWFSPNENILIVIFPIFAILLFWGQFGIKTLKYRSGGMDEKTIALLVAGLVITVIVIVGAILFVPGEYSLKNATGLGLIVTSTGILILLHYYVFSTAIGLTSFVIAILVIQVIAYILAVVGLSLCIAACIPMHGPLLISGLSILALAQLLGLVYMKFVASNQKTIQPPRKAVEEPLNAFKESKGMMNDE
T2 sequence (Q08722 19-323): as above

With `CSCC[C@H](NC(=O)[C@@H](NC(=O)[C@@H](NC(=O)[C@H](Cc1ccc(O)cc1)NC(=O)[C@H](Cc1ccccc1)NC(=O)[C@@H](N)CCCNC(=N)N)C(C)C)C(C)C)C(=O)N[C@@H](Cc1c[nH]c2ccccc12)C(=O)N[C@@H](CCCCN)C(=O)O` [4N1, reference compound], in series [1], the “solubility of peptide (in words)” value was “least soluble; also recorded: poorly soluble”. Moreover, the “MEC-1 Cell Death (%) 2 h” value in series [2] turned out to be 13%. For the same molecule, in series [3], the “Kd (μM) (OR)” value is on record as “NPD”.

With `CSCC[C@H](NC(=O)[C@@H](NC(=O)[C@@H](NC(=O)[C@H](Cc1ccc(O)cc1)NC(=O)[C@H](Cc1ccccc1)NC(=O)[C@@H](CN)CCCNC(=N)N)C(C)C)C(C)C)C(=O)N[C@@H](Cc1c[nH]c2ccccc12)C(=O)N[C@@H](CCCCN)CC(=O)O` [compound 3, (β^2hR)FYVVMW(β^3hK)] (X1-FYVVMW[β3hK]-OH), in series [1], the “solubility of peptide (in words)” value was “poorly soluble”. Besides, the “MEC-1 Cell Death (%) 2 h” value in series [2] is reported as “NPD”. Moreover, the “Kd (μM) (OR)” value in series [3] is listed as “NPD”. Also, the “Kd (μM) (MST)” value in series [4] is recorded as “NPD”.

With `CSCC[C@H](NC(=O)[C@@H](NC(=O)[C@@H](NC(=O)[C@H](Cc1ccc(O)cc1)NC(=O)[C@H](Cc1ccccc1)NC(=O)[C@H](CCCNC(=N)N)NC(C)=O)C(C)C)C(C)C)C(=O)N[C@@H](Cc1c[nH]c2ccccc12)C(=O)N[C@@H](CCCCN)C(N)=O` [compound 1], the “solubility of peptide (in words)” value in series [1] (listed as PKT1) is given as “least soluble; also recorded: poorly soluble”. In addition, the “MEC-1 Cell Death (%) 2 h” value in series [2] is 27%.

Take `CCCC[C@H](NC(=O)[C@@H](NC(=O)[C@@H](NC(=O)[C@H](Cc1ccc(O)cc1)NC(=O)[C@H](Cc1ccccc1)NC(=O)[C@H](CCCNC(=N)N)N(C)C(=O)[C@H](N)CCCCN)C(C)C)C(C)C)C(=O)N[C@@H](Cc1c[nH]c2ccccc12)C(=O)N[C@@H](CCCCN)C(=O)N[C@H](CCCCN)C(=O)O` [PKT16, H-(D)K ψ(CONMe)R F Y V V X W K (D)K-OH] (H-[dK][NMeR]FYVV[Nle]WK[dK]-OH): in series [5], the “PCD activity relative to PKHB1” value is “improved PCD activity”. For the same molecule, the entries for the “deaths on OSU cells” value in series [6] (25 μM), in series [6] (50 μM) and in series [6] (100 μM) were 11.1%, 17.9% and 52.7%, respectively. Besides, in series [2] (Table 4), the “Cell Death (MEC-1, 2 h)” value amounted to 68%. Besides, the “sensitivity to treatment with PKT16” value in series [7] is “sensitive”. In addition, in series [3] (Table 5, apparent Kd, biolayer interferometry, read-out: Kd (BI)), the Kd came to 74 µM.

In the case of `CSCC[C@H](NC(=O)CNC(=O)CNC(=O)[C@H](Cc1ccc(O)cc1)NC(=O)[C@H](Cc1ccccc1)NC(=O)[C@H](CCCNC(=N)N)NC(=O)[C@@H](N)CCCCN)C(=O)N[C@@H](Cc1c[nH]c2ccccc12)C(=O)N[C@@H](CCCCN)C(=O)N[C@@H](CCCCN)C(=O)O` [4NGG, reference compound] (H-KRFYGGMWKK-OH), in series [8], the “induction of PCD” value is on record as “unable to induce PCD”. Also, the “MEC-1 Cell Death (%) 2 h” value in series [2] turned out to be 2%. Also, the “Kd (μM) (OR)” value in series [3] is given as “NPD”. Further, the “Kd (μM) (MST)” value in series [4] is on record as “NPD”.

`CCCC[C@H](NC(=O)[C@@H](NC(=O)[C@@H](NC(=O)[C@H](Cc1ccccc1)NC(=O)[C@H](Cc1ccccc1)NC(=O)[C@H](CCCNC(=N)N)N(C)C(=O)[C@H](N)CCCCN)C(C)C)C(C)C)C(=O)N[C@@H](Cc1c[nH]c2ccccc12)C(=O)N[C@@H](CCCCN)C(=O)N[C@H](CCCCN)C(=O)O` [PKT16-FF, H-(D)K ψ(CONMe)R F F V V X W K (D)K-OH] (H-[dK][NMeR]FFVV[Nle]WK[dK]-OH): the solubility in water entry in series [1] (water) is on record as “low solubility in water”.
